# Reference: US20200399238A1, “THERAPEUTIC AURONES” (MIDDLE TENNESSEE STATE UNIVERSITY, priority 2016, published 2020)
# Columns and labels:
# [1] = test system: IL-8; assay: Cytokine response by ELISA, IL-8; format: cell-based, human; settings: LPS-stimulated THP-1, ELISA
# Experimental: (§1) Dexamethasone is a synthetic glucocorticoid that suppresses LPS-induced pro-inflammatory cytokine expression and was used as a control (Abraham, Lawrence et al. 2006). Supernatants were collected for human cytokine ELISAs and the manufacturer's protocol was followed to assess the cytokine response. Cells remaining after the supernatant collection were tested for relative viability by Alamar Blue cytotoxicity assay as previously described.
# [2] = test system: IL-1β; assay: Cytokine response by ELISA, IL-1β; format: cell-based, human; settings: LPS-stimulated THP-1, ELISA
# Experimental: as §1
# [3] = test system: iNOS; assay: Western blot, iNOS expression, RAW 264.7; settings: LPS-stimulated RAW264.7, 24 h
# Experimental: (§2) U0126 is a compound that inhibits MEK1/2 and was used as positive control for ERK phosphorylation inhibition (Hotokezaka, Sakai et al. 2002). Cells were lysed with radio-immunoprecipitation assay (RIPA) lysis buffer that contained a protease and phosphatase inhibitor cocktail. Cell lysates were then tested for protein concentration using a BCA protein assay and diluted with RIPA lysis buffer to normalize protein concentration in all samples. Lysates were mixed with sample loading buffer containing bromophenol blue, glycerol, SDS, and 2-mercaptoethanol. The separated proteins were then transferred onto a nitrocellulose membrane and blocked with 5% BSA in IX Tris-buffered saline with 0.1% Tween-20 for 1 h. The blots were incubated with primary antibodies at 4° C. overnight followed by incubation with HRP-conjugated secondary antibodies for 2 h at 22° C. The membranes were developed by addition of ECL substrate and images were collected with a ChemiDoc XRS+ system chemiluminescence imager (Bio-Rad, Hercules, Calif., USA). Western blot band intensity was quantified using Image Lab software (Bio-Rad, Hercules, Calif., USA). […]
# [4] = test system: TNFα mRNA; assay: Quantitative RT-PCR of TNF-α transcription, THP-1; format: cell-based, human; settings: 80 μM pre-treatment, LPS 4 h, differentiated THP-1
# Experimental: Transcription of TNF-α (NM 000594) and beta-2-microglobin, 132M (NM 004048), in 2.5×10^5 PMA-differentiated THP1 cells was investigated in cells without treatment, stimulated with […] Salmonella LPS, or pretreated for 1 hour with 1 μM dexamethasone or 80 μM aurone 1 followed by 4 hours of incubation with 20 ng/ml LPS. Total RNA was purified after 4 hours of LPS stimulation using the Maxwell 16 LEV simplyRNA Tissue Kit (Promega, WI, USA) per manufacturer's instructions (Jeffries, Kiss et al. 2014). Total RNA concentrations and the 260/280 nm ratios of each RNA sample were assessed using a NanoDrop 2000 UV-Vis spectrophotometer (Thermo Fisher Scientific, MA, USA). SYBR® FAST One-step qRT-PCR (KAPA Biosystems, MA, USA) was used to examine gene transcription after reaction optimization.
# QuantiTect® Primer Assay TNF (QT01079561) and B2M (Q300088935) primer (Qiagen, CA, USA) optimization studies, including melt curve analyses to confirm primer specificity and efficiency, were conducted to find appropriate running conditions (Fajardy, Moitrot et al. 2009). Briefly, the optimized conditions were 1 ng of total RNA added to 20 μl of reaction including 150 nM of forward and reverse primers. […] The fold change was calculated by using 2^−ΔΔct normalized to LPS alone (Schmittgen and Livak 2008).
# [5] = test system: NO production; assay: NO assay (Griess, nitrite), RAW 264.7; format: cell-based, murine; settings: LPS-stimulated RAW264.7, 24 h
# Experimental: Nitrite concentration in culture media of cells exposed to the indicated treatments was determined as an estimate of NO production with Griess reagent using a nitrate/nitrite colorimetric assay kit (Cayman Chemical Company, USA) according to the manufacturer's protocol.
# [6] = test system: ERK, JNK, p38; assay: Western blot, MAPK phosphorylation, RAW 264.7; settings: RAW264.7; LPS 15 min
# Experimental: as §2
smiles,measurement,setting,value
O=C1/C(=C/c2ccc(CO)o2)Oc2ccccc21 [aurone 1],reduction of IL-8 expression,[1],71%
same,reduction of IL-1β expression,[2],98%
same,reduction in iNOS levels,[3]; 50 μM,31.7%
same,reduction in iNOS levels,[3]; 100 μM,57.5%
same,reduction of TNFα mRNA levels,[4],49%
same,production of NO (nitrite in supernatants),[5],significantly reduced
same,"phosphorylation of ERK, JNK, or p38",[6],no statistically significant effect
